{"source": "patent US6365634B1", "about": "“Naturally occurring compounds and their derivatives as cyclooxygenase 2 and/or 5-lipoxygenase inhibitors” (C-P Technology Limited Partnership, priority 1997, dated 2002)", "key": {"human keratinocytes [1]": {"tested_on": "human keratinocytes", "experiment": "Microscopic examination of treated keratinocyte cultures", "type": "cell-based"}, "human keratinocytes [2]": {"tested_on": "human keratinocytes", "experiment": "Lactate dehydrogenase (LDH) release toxicity assay", "type": "cell-based", "conditions": "highest value of any culture treated with 5, 1.0, 0.2 or 0.04 uM", "experimental": "To address the possibility that the inhibition of both PGE2 and LTB4 production by human keratinocytes treated with dehydroabietic acid methyl ester was […], a cell lactate dehydrogenase toxicity assay (Fisher Scientific) was performed. Briefly, lactate dehydrogenase (LDH) is found intracellularly and is released only in response to toxic stimuli and/or cell death. The amount of LDH released into the media of cultured cells is indicative of the degree of toxicity occurring in that culture. To do the assay, 48-well plates of cultured human keratinocytes (as described above for the PGE2 assay) were prepared and treated with the same concentrations of dehydroabietic acid methyl ester as described above for the PGE2 and LTB4 assays. One hour prior to harvesting culture media samples from wells treated with dehydroabietic acid methyl ester, duplicate wells were treated with a cell lysis buffer (Fisher Scientific) that caused 100% cell death to occur in the treated wells. After culture media samples were collected from all wells, the amount of LDH present in each was determined using a colorometric assay (Fisher Scientific). […] The amount of LDH released into the media of cultures treated with dehydroabietic acid methyl ester as well as vehicle-control media was determined using the colorometric assay and expressed as a percentage of that released by the 100% cell death wells.\nTo address the possibility that the inhibition of PGE2 production by human keratinocytes treated with 4-cumylphenol was due to toxicity, a cell lactate dehydrogenase toxicity assay (Fisher Scientific) was performed. […] After culture media samples were collected from all wells, the amount of LDH present in each was determined using a colorometric assay (Fisher Scientific). […] The amount of LDH released into the media of cultures treated with dehydroabietic acid methyl ester as well as vehicle-control media was determined using the colorometric assay and expressed as a percentage of that released by the 100% cell death wells. […]"}, "[3]": {"tested_on": "human keratinocyte PGE2 production", "experiment": "Cell-based COX II assay: PGE2 production by cultured human foreskin keratinocytes (enzyme immunoassay)", "conditions": "5, 1.0, 0.2 and 0.04 uM, 24 hours, high calcium medium", "experimental": "The ability of dehydroabietic acid methyl ester to inhibit the enzymatic activities of COX II and 5-LO was tested using primary cultures of human foreskin keratinocytes. Briefly, human keratinocytes were plated in 48-well plates (Nunc) at an initial density of 2.5×10^4 cells per well. The cultures were maintained in medium 154XP (Cascade Biologics) to which human keratinocyte growth supplement (Cascade Biologics) was added. Cultures were plated initially in medium 154XP containing 0.07 mM CaCl2. Upon reaching […] confluency, the media was exchanged with high calcium medium 154XP containing 1.2 mM CaCl2. Previous studies have shown that an increase in extracellular Ca^2+concentration induces the differentiation of cultured keratinocytes with a concomitant increase in the expression of COX II protein and COX II mRNA with no apparent effect on COX I expression (Leong, J., Hughes-Fulford, M., Rakhlin, A., Maclouf, J., and Goldyne, M., (1996), Exp. Cell Res., V224, p79). Twenty-four hours after switching to the high calcium media, duplicate wells were treated with dehydroabietic acid methyl ester serially diluted in ethanol to produce final concentrations of 5, 1.0, 0.2, and 0.04 uM. Companion cultures were treated with an identical dilution series of the Merck COX II-specific inhibitor DFU. Twenty-four hours later, samples were removed from each treated well (as well as vehicle-treated control wells) and the amount of PGE2 (a product of the COX II pathway) was quantified using a PGE2-specific enzyme immunoassay (Cayman Chemical). ), As was done with the previously described biochemical assays (COX I, COX II, 5-LO, and 15-LO), the percent inhibition was calculated based on a comparison between vehicle treated control cultures and cultures treated with dehydroabietic acid methyl ester or DFU (see Fractionation and Bioassay Analysis of Fractions Derived from Extract-8 above).\nThe ability of 4-cumylphenol to inhibit the enzymatic activity of COX II was tested using primary cultures of human foreskin keratinocytes. These cell studies were performed in an identical manner to the studies described in Example 6. […] Twenty-four hours later, samples were removed from each treated well (as well as vehicle-treated control wells) and the amount of PGE2 (a product of the COX II pathway) was quantified using a PGE2-specific enzyme immunoassay (Cayman Chemical). ), as was done with the previously described COX I, COX II, and 15-LO biochemical assays (see Example 2B). The percent inhibition was calculated based on a comparison between vehicle treated control cultures and cultures treated with 4-cumylphenol or DFU. […]\nTo evaluate the biological activities of 3-methoxy aniline, sufficient quantities of the compound were synthesized as detailed in Example 1C (above). […]"}, "[4]": {"tested_on": "human keratinocyte LTB4 production", "experiment": "Cell-based 5-LO assay: LTB4 production by cultured human keratinocytes (enzyme immunoassay)", "conditions": "5, 1.0, 0.2 and 0.04 uM, 24 hours, high calcium medium", "from_the_text": "In addition to assessing the effect of dehydroabietic acid methyl ester on the production of PGE2 by human keratinocytes, the human keratinocyte culture system was also used to assess for the inhibition of LTB4 production. Keratinocytes have not been used as extensively as other cell types for 5-LO studies, however, human keratinocytes produce appreciable amounts of LTB4 and production of this eicosanoid by cultured keratinocytes is inhibited by known inhibitors of 5-LO (see FIG. 11). To assess for inhibition of LTB4 production, human keratinocytes were cultured as described above. Following introduction of the high calcium media, the identical dilution series of dehydroabietic acid methyl ester as described above in the PGE2 study was added to duplicate wells of keratinocytes. Twenty-four hours later culture media samples were removed from each well and the amount of LTB4 in each sample determined using an enzyme immunoassay specific for LTB4 (Cayman Chemical). As was done with the PGE2 assay described above, the percent inhibition was calculated based on a comparison between vehicle treated control cultures and cultures treated with dehydroabietic acid methyl ester or Rev 5901 (a specific 5-LO inhibitor; Cayman Chemical)."}, "human recombinant COX II": {"molecular_target": "T1, human recombinant COX II (Homo sapiens, UniProt P35354)", "T1 construct": "purchased Oxford Chemical", "T1 sequence (P35354 18-604)": "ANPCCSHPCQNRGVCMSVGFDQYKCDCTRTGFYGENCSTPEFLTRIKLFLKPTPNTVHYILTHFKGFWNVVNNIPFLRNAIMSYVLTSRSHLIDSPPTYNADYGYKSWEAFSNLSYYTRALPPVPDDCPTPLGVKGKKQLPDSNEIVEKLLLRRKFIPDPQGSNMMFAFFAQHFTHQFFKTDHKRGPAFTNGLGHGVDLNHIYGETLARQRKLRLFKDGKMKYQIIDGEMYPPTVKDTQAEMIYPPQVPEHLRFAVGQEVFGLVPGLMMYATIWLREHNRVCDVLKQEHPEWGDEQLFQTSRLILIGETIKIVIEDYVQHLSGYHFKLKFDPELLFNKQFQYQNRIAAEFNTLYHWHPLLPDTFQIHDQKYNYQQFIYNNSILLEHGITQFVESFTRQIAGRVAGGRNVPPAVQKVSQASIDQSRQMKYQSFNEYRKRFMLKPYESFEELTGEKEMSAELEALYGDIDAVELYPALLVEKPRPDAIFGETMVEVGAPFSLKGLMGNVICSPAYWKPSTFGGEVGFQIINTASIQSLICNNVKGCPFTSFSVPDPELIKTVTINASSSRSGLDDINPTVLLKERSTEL", "experiment": "COX II biochemical assay (3H-arachidonic acid conversion, TLC quantitation)", "conditions": "read-out: Percent Inhibition of COX II", "procedure": "Two units of recombinant COX II enzyme (corresponding to 0.8 ug total protein) was added followed by 5 uL aliquots of the peat bog extracts yielding a final concentration of the peat extracts of 25 ug/ml. All samples were run in duplicate. […] Reactions were initiated by the addition of ^3H-arachidonic acid (DuPont-NEN) at a final concentration of 50 uM. The reactions were maintained for 5 minutes at 37° C. and stopped by the addition of ice-cold methanol/acetic acid (10:1 v/v).\nThe assessment of cyclooxygenase activity (both COX I and II) in the presence and absence of the peat bog extracts was based on the quantitation of tlhe radiolabeled arachidonic acid metabolites prostaglandin A2 (PGA2), PGE2, and PGF2-alpha. To do this, a 50 uL sample of each reaction solution was separated via TLC on LK6DF silica plates co-spotted with arachidonic acid, PGA2, and PGF2-alpha and developed in hexane/isopropyl alcohol/ acetic acid (85:15:1 v/v). The bands were visualized by UV-vis or I2 staining and scraped into scintillation vials for quantitation. […] The total enzyme activity (At), the corrected enzyme activity in the presence of an inhibitor (Ai), and % inhibition were calculated by the following equations:\n3) Percent Inhibition=100 (1−Ai/ At)"}}}
{"smiles": "COc1cccc(NC(=O)C(C)(C)C)c1", "note": "[Fraction 3-M-A, propanamide, N-(3-methoxyphenyl)2,2-dimethyl]", "values": [{"measurement": "toxicity when treated cultures were examined microscopically", "setting": "human keratinocytes [1]", "value": "lack of toxicity"}, {"measurement": "percent toxicity (LDH released) versus the 100% cell death control", "setting": "human keratinocytes [2]", "value": "≤ 10", "unit": "%"}, {"measurement": "inhibition of PGE2 production by cultured human keratinocytes", "setting": "[3]", "value": "inhibited the production of PGE2"}]}
{"smiles": "CCCCCC(O)c1cccc(OCc2ccc3ccccc3n2)c1", "note": "(stereo not drawn) [REV 5901, reference compound]", "values": [{"measurement": "inhibition of LTB4 production by cultured human keratinocytes", "setting": "[4]", "value": "dose-dependent inhibition"}]}
{"smiles": "CC1(C)OC(=O)C(c2cccc(F)c2)=C1c1ccc(S(C)(=O)=O)cc1", "note": "[DFU, reference compound]", "values": [{"measurement": "inhibition of PGE2 production by cultured human keratinocytes", "setting": "[3]", "value": "Dose-dependent inhibition"}]}
{"smiles": "CS(=O)(=O)Nc1ccc([N+](=O)[O-])cc1Oc1ccccc1", "note": "[Nimesulide, reference compound]", "values": [{"measurement": "inhibition at 250 µM", "setting": "human recombinant COX II", "value": 13.3, "unit": "%"}]}
